Results published in patent publication US20080171716A1, “NUCLEIC ACID MODULATION OF TOLL-LIKE RECEPTOR-MEDIATED IMMUNE STIMULATION” (Protiva Biotherapeutics, Inc., priority 2006, published 2008).
“Also recorded” adds a separate entry of the source. m = 2'-O-methyl; r = 2'-OH (RNA)

Experiments:
TLR7/8 = experiment: Cytokine induction in human PBMCs by immunostimulatory RNA, alone or co-formulated with modified ssRNA in the same SNALP/lipid particle; format: cell-based; details: for immunostimulatory effects (IFN-α induction) of ApoB antisense ssRNA when co-formulated / immunostimulatory effects (IFN-α induction) of ApoB siRNA duplex when co-formulated: co-formulated in the same SNALP; for immunostimulatory effects (IFN-α induction) of ApoB antisense ssRNA when co-formulated: 1:1 molar ratio; for immunostimulatory effects (IFN-α induction) of ApoB siRNA duplex when co-formulated: equimolar
Experimental: (§1) All RNA molecules used in this study were heated at 90° C. for 3 min. and then placed at 37° C. for 60 min. Non-denaturing PAGE analysis on a 20% polyacrylamide gel was performed to confirm that ssRNA molecules were intact and that no duplexes had formed upon heating. The RNA molecules were encapsulated in a SNALP formulation comprising PEG-cDMA:DLinDMA:cholesterol:DSPC in a 2:40:48:10 mol % ratio (2:40 SNALP), prepared using a syringe press process.
(§2) Fresh human peripheral blood mononuclear cells (PBMCs) were isolated and seeded at about 3×10^5 cells/well in a total volume of 180 μl. Next, 20 μl of the appropriate SNALP diluted in PBS or 10 μl of naked TLR agonist were added to the PBMCs. For time course experiments, PBMCs were pretreated with UmodS ssRNA or a control and the appropriate naked TLR agonist was added at 0, 0.5, or 2 hours after pretreatment. When the SNALP and naked TLR agonist were added separately, the SNALP was added first followed by the naked TLR agonist. At t=24 hr., the cell supernatant was harvested and IFN-α and/or IL-6 levels were determined using ELISA.
The ssRNA molecules used in this study were heated at 90° C. for 3 min. and then placed at 37° C. for 60 min to disrupt any potential secondary structure. Non-denaturing PAGE analysis on a 20% polyacrylamide gel was performed to confirm that ssRNA molecules were intact and that no duplexes had formed upon heating. siRNA duplexes were prepared by annealing equimolar concentrations of two deprotected and desalted ssRNA oligonucleotides using standard procedures. Formation of annealed siRNA duplexes was confirmed by non-denaturing PAGE analysis on a 20% polyacrylamide gel. The RNA molecules were encapsulated in a 2:40 SNALP formulation prepared using a syringe press process.
Fresh human peripheral blood mononuclear cells (PBMCs) were isolated and seeded at about 3×10^5 cells/well in a total volume of 180 μl. Next, 20 μl of the appropriate SNALP diluted in PBS were added to the PBMCs. At t=24 hr., the cell supernatant was harvested and IFN-α and/or IL-6 levels were determined using an enzyme-linked immunosorbent assay (ELISA). For example, IFN-α and IL-6 levels can be measured using a sandwich ELISA kit available from PBL Biomedical (Piscataway, N.J.) and eBioscience (San Diego, Calif.), respectively.
(§3) Lipid Encapsulation of RNA and ODN. RNA or ODN were encapsulated in liposomes by a process of spontaneous vesicle formation as described in Judge et al., supra, and Jeffs et al., Pharm. Res., 22:362-372 (2005).
(§4) Cell Isolation and Culture. Human PBMCs were isolated from whole blood of healthy donors by a standard Ficoll-Hypaque density centrifugation. Blood was diluted 1:1 with PBS, layered onto Ficoll-Paque Plus, and centrifuged at 1600 RPM for 30 min. PBMCs were washed in PBS twice followed by resuspension in complete media (RPMI 1640, 10% heat inactivated FBS, 2 mM L-glutamine, and 1% penicillin/streptomycin). PBMCs were plated at 2.5×10^5 cells/well in 96 well plates for cytokine induction assays.
(§5) Loxoribine (InvivoGen; San Diego, Calif.), polyIC (Sigma-Aldrich; St. Louis, Mo.), and formulated nucleic acids were diluted in PBS and added to either human PBMC or Flt3L DC cultures. Cells were incubated 24 h at 37° C. before supernatants were assayed for cytokines by ELISA.
(§6) Cytokine ELISA. All cytokines were quantified using sandwich ELISA kits according to the manufacturer's instructions. These were mouse and human IFN-α (PBL Biomedical; Piscataway, N.J.) and IL-6 (eBioscience; San Diego, Calif.).

TLR7 = biological target: T1, TLR7 (Homo sapiens, UniProt Q9NYK1); experiment: Loxoribine (TLR7 agonist)-induced IFN-α/IL-6 production in human PBMCs; format: cell-based; details: for reduction of Lox induced IFN-α / reduction of Lox induced IL-6: 300 μM Lox, formulated 2′OMe RNA 1.5 μg/ml (~0.2 μM), 24 h, replicate experiments; for IL-6 levels induced by naked loxoribine / level of IFN-α induced by naked loxoribine: SNALP-encapsulated ssRNA added before naked agonist, supernatant at 24 hr, ELISA
T1 construct: Human PBMCs were isolated from whole blood of healthy donors; endogenous in cells; host or cells: primary human PBMCs from healthy donors
T1 sequence (Q9NYK1 27-1049): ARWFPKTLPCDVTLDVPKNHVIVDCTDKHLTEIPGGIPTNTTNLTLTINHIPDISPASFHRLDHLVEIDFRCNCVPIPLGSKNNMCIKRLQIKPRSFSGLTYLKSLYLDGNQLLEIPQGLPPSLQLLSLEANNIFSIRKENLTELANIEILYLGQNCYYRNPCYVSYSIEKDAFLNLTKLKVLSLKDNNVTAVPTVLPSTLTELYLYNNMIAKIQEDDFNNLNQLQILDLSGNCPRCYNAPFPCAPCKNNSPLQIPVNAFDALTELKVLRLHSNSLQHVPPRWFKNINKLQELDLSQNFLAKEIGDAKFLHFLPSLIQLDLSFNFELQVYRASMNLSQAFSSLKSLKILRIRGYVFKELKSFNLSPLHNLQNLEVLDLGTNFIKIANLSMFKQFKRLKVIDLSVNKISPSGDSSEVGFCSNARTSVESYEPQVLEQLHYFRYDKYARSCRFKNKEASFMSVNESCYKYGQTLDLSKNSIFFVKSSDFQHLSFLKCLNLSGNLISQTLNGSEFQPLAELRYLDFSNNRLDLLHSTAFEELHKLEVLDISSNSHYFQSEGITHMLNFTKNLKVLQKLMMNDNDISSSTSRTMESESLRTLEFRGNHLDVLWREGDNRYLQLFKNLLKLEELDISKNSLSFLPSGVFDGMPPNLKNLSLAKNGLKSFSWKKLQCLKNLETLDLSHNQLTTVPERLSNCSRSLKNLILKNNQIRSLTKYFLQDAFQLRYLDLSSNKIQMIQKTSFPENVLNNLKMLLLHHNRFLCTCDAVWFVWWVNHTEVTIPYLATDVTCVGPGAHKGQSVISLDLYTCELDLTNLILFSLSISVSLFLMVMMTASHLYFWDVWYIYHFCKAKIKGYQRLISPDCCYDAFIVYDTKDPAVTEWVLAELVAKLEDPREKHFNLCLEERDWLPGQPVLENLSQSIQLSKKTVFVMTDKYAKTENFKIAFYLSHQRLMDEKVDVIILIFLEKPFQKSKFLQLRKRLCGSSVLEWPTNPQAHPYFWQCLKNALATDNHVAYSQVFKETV
Experimental: as §1, §2, §3, §4, §5, §6

[1] = human PBMCs, equimolar amounts in the same SNALP, 24 h
[2] = human PBMCs, co-encapsulated in equimolar amounts in the same SNALP, 24 hr
[3] = human PBMCs, 24 h, listed as Luc-mU

Row | Substance | cytokine production from human PBMCs when co-formulated with immunostimulatory RNA (TLR7/8; human PBMCs, co-formulated with immunostimulatory ssRNA) | IFN-α levels induced by β-gal antisense ssRNA when co-encapsulated (TLR7/8; [1]) | IL-6 levels induced by β-gal antisense ssRNA when co-encapsulated (TLR7/8; [1]) | IFN-α levels induced by β-gal antisense ssRNA when co-encapsulated (TLR7/8; human PBMCs, equimolar amounts in the same SNALP, 24 h, listed as (mU)21) | reduction of Lox induced IFN-α (TLR7) | reduction of Lox induced IL-6 (TLR7) | IL-6 levels induced by naked loxoribine (TLR7) | level of IFN-α induced by naked loxoribine (TLR7) | IFN-α production induced by the RNA alone (TLR7/8; human PBMC cultures, lipid-formulated RNA alone, doses 0.1 to 3 μg/ml) | IFN-α levels induced by TLR7/8 agonist RNA40 (TLR7/8; [2]) | IL-6 levels induced by TLR7/8 agonist RNA40 (TLR7/8; [2]) | immunostimulatory effects (IFN-α induction) of ApoB antisense ssRNA when co-formulated (TLR7/8; human PBMCs, 24 h) | immunostimulatory effects (IFN-α induction) of ApoB antisense ssRNA when co-formulated (TLR7/8; [3]) | immunostimulatory effects (IFN-α induction) of ApoB siRNA duplex when co-formulated (TLR7/8; human PBMCs, 24 h) | immunostimulatory effects (IFN-α induction) of ApoB siRNA duplex when co-formulated (TLR7/8; [3])
1 | polyUmod21: 2′OMe-uridine homopolymer of 21 nucleotides in length (UUUUUUUUUUUUUUUUUUUUU; all 2'-O-methyl, backbone not given here) | equally as effective at inhibiting cytokine production | significantly reduced | significantly reduced | inhibit | 72+/−5% | 80+/−1% | inhibited | inhibited |  |  |  |  |  |  | 
2 | Luc UmodS: Luc sense strand ssRNA with 2′OMe at uridines: GAmUmUAmUGmUCCGGmUmUAmUGmUAUU (sense GAUUAUGUCCGGUUAUGUAUU; sugars from the 5' end rrmmrmrmrrrrmmrmrmrrr, backbone not given here) |  | abrogated |  |  | 55+/−16% | 62+/−10% | inhibited | dose-dependently decrease; also recorded: inhibited | do not induce measurable IFN-α production | significantly reduce | significantly reduce | abolished | abrogated | significantly reduced | abrogated
